{"source": "patent US9521847B2", "about": "“Synergistic weed control from applications of pyridine carboxylic acid herbicides and synthetic auxin herbicides and/or auxin transport inhibitors” (Dow AgroSciences LLC, priority 2014, dated 2016)", "key": {"[1]": {"test_system": "pigweed (AMARE, Amaranthus retroflexus)", "assay": "Greenhouse postemergence trial, % visual injury", "assay_type": "in vivo", "conditions": "for % visual injury, Obs: AMARE"}, "[2]": {"test_system": "winter rape (BRSNW, Brassica napus)", "assay": "Greenhouse postemergence trial, % visual injury", "assay_type": "in vivo"}, "[3]": {"test_system": "common lambsquarters (CHEAL, Chenopodium album L.)", "assay": "Greenhouse postemergence trial, % visual injury", "assay_type": "in vivo", "conditions": "Chenopodium album, post-emergence; 140 g ae/ha alone; 20-22 d; read-out: % visual injury Obs"}, "[4]": {"test_system": "kochia (KCHSC, Kochia scoparia)", "assay": "Greenhouse postemergence trial, % visual injury", "assay_type": "in vivo", "procedure": "Following the protocol in Example 1, compound 1 and compound 2 were combined with 2,4 D EHE (EC) and applied to kochia (KCHSC, Kochia scoparia) and the phytotoxicity of the herbicidal compositions was measured.\nFollowing the protocol in Example 1, compound 1 (EC) and Compound 2 (SC) were combined with diflufenzopyr and applied to kochia (Kochia scoparia, KCHSC) and the phytotoxicity of the herbicidal composition was measured."}, "[5]": {"test_system": "velvetleaf (Abutilon theophrasti, ABUTH)", "assay": "Greenhouse postemergence trial, % visual injury", "assay_type": "in vivo", "conditions": "140 g ae/ha alone; 20-22 d"}, "[6]": {"test_system": "nutsedge (Cyperus esculentus, CYPES)", "assay": "Greenhouse postemergence trial, % visual injury", "assay_type": "in vivo"}, "[7]": {"test_system": "sunflower (Helianthus annus, HELAN)", "assay": "Greenhouse postemergence trial, % visual injury", "assay_type": "in vivo", "conditions": "140 g ae/ha alone; 20-22 d"}, "[8]": {"test_system": "wild buckwheat (Polygonum convolvulus, POLCO)", "assay": "Greenhouse postemergence trial, % visual injury", "assay_type": "in vivo"}, "[9]": {"test_system": "grain sorghum (Sorghum vulgare, SORVU)", "assay": "Greenhouse postemergence trial, % visual injury", "assay_type": "in vivo"}, "[10]": {"test_system": "common chickweed (Stellaria media, STEME)", "assay": "Greenhouse postemergence trial, % visual injury", "assay_type": "in vivo"}, "[11]": {"test_system": "Russian thistle (Salsola iberica, SASKR)", "assay": "Greenhouse postemergence trial, % visual injury", "assay_type": "in vivo"}, "[12]": {"test_system": "wild mustard (Sinapis arvensis, SINAR)", "assay": "Greenhouse postemergence trial, % visual injury", "assay_type": "in vivo"}, "spring barley (HORVS)": {"test_system": "spring barley (HORVS)", "conditions": "in vivo"}, "maize (ZEAMX)": {"test_system": "maize (ZEAMX)", "conditions": "in vivo"}, "common rice (ORYSA)": {"test_system": "common rice (ORYSA)", "conditions": "in vivo"}, "[13]": {"test_system": "Canadian thistle (CIRAR, Cirsium arvense)", "assay": "Greenhouse postemergence trial, % visual injury", "conditions": "Cirsium arvense, post-emergence"}, "[14]": {"test_system": "spring rape (Brassica napus, BRSNN)", "assay": "Greenhouse postemergence trial, % visual injury", "conditions": "Brassica napus, post-emergence"}, "[15]": {"test_system": "poinsettia (Euphorbia heterophylla, EPHHL)", "assay": "Greenhouse postemergence trial, % visual injury", "conditions": "for pest or weed control at 140 g/ha: Euphorbia heterophylla, post-emergence"}, "[16]": {"test_system": "wild pansy (Viola tricolor, VIOTR)", "assay": "Greenhouse postemergence trial, % visual injury"}, "[17]": {"test_system": "ivyleaf morningglory (Ipomoea hederacea, IPOHE)", "assay": "Greenhouse postemergence trial, % visual injury", "conditions": "Ipomoea, post-emergence, read-out: % visual injury, Obs, IPOHE, 140 g ae/ha"}, "[18]": {"conditions": "Hordeum vulgare (spring barley)"}, "[19]": {"conditions": "read-out: % visual injury (Obs)"}}, "note": "Where two headings read alike, the source gives them in different places.", "data": [{"smiles": "CCCCC(CC)COC(=O)COc1ccc(Cl)cc1Cl", "note": "(centres unmarked) [2,4-D EHE, 2-ethylhexyl (2,4-dichlorophenoxy)acetate, reference compound]", "values": [{"measurement": "% visual injury, Obs", "setting": "[1]; 140 g ae/ha", "value": 75, "unit": "%"}, {"measurement": "% visual injury, Obs", "setting": "[1]; 400 g ae/ha", "value": 80, "unit": "%"}, {"measurement": "pest or weed control at 140 g/ha", "setting": "[1]; Amaranthus retroflexus, post-emergence, 140 g ae/ha alone, 20-22 d, read-out: % visual injury Obs", "value": 95, "unit": "%"}, {"measurement": "pest or weed control at 280 g/ha", "setting": "[1]; Amaranthus retroflexus, post-emergence, 280 g ae/ha alone, 20-22 d, read-out: % visual injury Obs", "value": 30, "unit": "%"}, {"measurement": "% visual injury (Obs)", "setting": "[2]; 2,4-D EHE 400 g ae/ha", "value": 93, "unit": "%"}, {"measurement": "% visual injury Obs", "setting": "[2]; 280 g ae/ha alone, 20-22 d", "value": 85, "unit": "%"}, {"measurement": "% visual injury, Obs", "setting": "[2]; BRSNW, 400 g ae/ha", "value": 93, "unit": "%"}, {"measurement": "pest or weed control at 140 g/ha", "setting": "[3]", "value": 73, "unit": "%"}, {"measurement": "% visual injury (Obs)", "setting": "[4]; 2,4-D EHE 400 g ae/ha", "value": 10, "unit": "%"}, {"measurement": "% visual injury Obs", "setting": "[4]; 280 g ae/ha alone, 20-22 d", "value": 10, "unit": "%"}, {"measurement": "pest or weed control at 400 g/ha", "setting": "[4]; Bassia scoparia, post-emergence, KCHSC, 400 g ae/ha, read-out: % visual injury, Obs", "value": 50, "unit": "%"}, {"measurement": "% visual injury Obs", "setting": "[5]", "value": 55, "unit": "%"}, {"measurement": "% visual injury (Obs)", "setting": "[6]; 2,4-D EHE 140 g ae/ha", "value": 0, "unit": "%"}, {"measurement": "% visual injury, Obs", "setting": "[6]; CYPES, 140 g ae/ha", "value": 10, "unit": "%"}, {"measurement": "pest or weed control at 140 g/ha", "setting": "[6]; Cyperus, post-emergence, 140 g ae/ha alone, 20-22 d, read-out: % visual injury Obs", "value": 0, "unit": "%"}, {"measurement": "% visual injury Obs", "setting": "[7]", "value": 75, "unit": "%"}, {"measurement": "% visual injury (Obs)", "setting": "[8]; 2,4-D EHE 400 g ae/ha", "value": 80, "unit": "%"}, {"measurement": "% visual injury (Obs)", "setting": "[8]; 2,4-D EHE 420 g ae/ha", "value": 60, "unit": "%"}, {"measurement": "% visual injury Obs", "setting": "[8]; 140 g ae/ha alone, 20-22 d", "value": 55, "unit": "%"}, {"measurement": "% visual injury (Obs)", "setting": "[9]; 2,4-D EHE 140 g ae/ha", "value": 0, "unit": "%"}, {"measurement": "% visual injury Obs", "setting": "[9]; 140 g ae/ha alone, 20-22 d", "value": 0, "unit": "%"}, {"measurement": "% visual injury (Obs)", "setting": "[10]; 2,4-D EHE 400 g ae/ha", "value": 10, "unit": "%"}, {"measurement": "% visual injury Obs", "setting": "[10]; 140 g ae/ha alone, 20-22 d", "value": 63, "unit": "%"}, {"measurement": "% visual injury (Obs)", "setting": "[11]; 2,4-D EHE 400 g ae/ha", "value": 70, "unit": "%"}, {"measurement": "% visual injury, Obs", "setting": "[11]; SASKR, 400 g ae/ha", "value": 70, "unit": "%"}, {"measurement": "% visual injury (Obs)", "setting": "[12]; 2,4-D EHE 400 g ae/ha", "value": 97, "unit": "%"}, {"measurement": "% visual injury, Obs", "setting": "[12]; SINAR, 400 g ae/ha", "value": 97, "unit": "%"}, {"measurement": "% visual injury (Obs)", "setting": "spring barley (HORVS); [18]", "value": 0, "unit": "%"}, {"measurement": "% visual injury Obs", "setting": "spring barley (HORVS); [18]", "value": 0, "unit": "%"}, {"measurement": "% visual injury (Obs)", "setting": "spring barley (HORVS); spring barley (Hordeum vulgare)", "value": 10, "unit": "%"}, {"measurement": "% visual injury Obs", "setting": "maize (ZEAMX); Zea mays (maize)", "value": 0, "unit": "%"}, {"measurement": "% visual injury (Obs)", "setting": "maize (ZEAMX); maize (Zea mays)", "value": 0, "unit": "%"}, {"measurement": "% visual injury, Obs", "setting": "maize (ZEAMX); maize (Zea mays)", "value": 0, "unit": "%"}, {"measurement": "% visual injury (Obs)", "setting": "common rice (ORYSA)", "value": 0, "unit": "%"}, {"measurement": "% visual injury, Obs", "setting": "common rice (ORYSA)", "value": 10, "unit": "%"}, {"measurement": "pest or weed control at 140 g/ha", "setting": "[13]; [19]", "value": 50, "unit": "%"}, {"measurement": "pest or weed control at 400 g/ha", "setting": "[13]; [19]", "value": 70, "unit": "%"}, {"measurement": "pest or weed control at 140 g/ha", "setting": "[13]; read-out: % visual injury Obs", "value": 50, "unit": "%"}, {"measurement": "pest or weed control at 280 g/ha", "setting": "[13]; read-out: % visual injury Obs", "value": 73, "unit": "%"}, {"measurement": "plant injury at 140 g/ha", "setting": "[14]; [19]", "value": 60, "unit": "%"}, {"measurement": "plant injury at 400 g/ha", "setting": "[14]; [19]", "value": 75, "unit": "%"}, {"measurement": "plant injury at 140 g/ha", "setting": "[14]; read-out: % visual injury Obs", "value": 60, "unit": "%"}, {"measurement": "plant injury at 140 g/ha", "setting": "[14]; read-out: % visual injury, Obs", "value": 65, "unit": "%"}, {"measurement": "% visual injury (Obs)", "setting": "[15]; 2,4-D EHE 400 g ae/ha", "value": 60, "unit": "%"}, {"measurement": "pest or weed control at 140 g/ha", "setting": "[15]; read-out: % visual injury Obs, 140 g ae/ha alone, 20-22 d", "value": 35, "unit": "%"}, {"measurement": "pest or weed control at 140 g/ha", "setting": "[15]; read-out: % visual injury, Obs, EPHHL, 140 g ae/ha", "value": 5, "unit": "%"}, {"measurement": "% visual injury (Obs)", "setting": "[16]; 2,4-D EHE 140 g ae/ha", "value": 35, "unit": "%"}, {"measurement": "% visual injury (Obs)", "setting": "[16]; 2,4-D EHE 400 g ae/ha", "value": 65, "unit": "%"}, {"measurement": "pest or weed control at 140 g/ha", "setting": "[16]; Viola tricolor, post-emergence, read-out: % visual injury Obs", "value": 35, "unit": "%"}, {"measurement": "pest or weed control at 140 g/ha", "setting": "[17]", "value": 93, "unit": "%"}]}]}
